Assay results as given in patent US9523100B2, “Pesticidal compositions and related methods” (DOW AGROSCIENCES LLC, priority 2013, dated 2016).
Where two headings read alike, the source gives them in different places.

Tests used:
[1] = test system: Green Peach Aphid (GPA) (Myzus persicae) (MYZUPE); assay: Bioassay for Green Peach Aphid (GPA), foliar spray on cabbage seedlings; type: in vivo; settings: 72 h, read-out: GPA 200 ppm, % Control (or Mortality) rating
How it was run: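 Cabbage seedlings infested with 20-50 GPA (wingless adults and nymphs) one day before spraying to runoff with 200 ppm compound; four pots per treatment. Live aphids counted after three days at ~25° C; percent control by Abbott's correction against solvent-sprayed plants.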

[2] = test system: Sweetpotato Whitefly-Crawler (WF) (Bemisia tabaci) (BEMITA); assay: Insecticidal test for Sweetpotato Whitefly-Crawler (WF) in foliar spray assay on cotton plants; type: in vivo; settings: 216 h, read-out: WF 200 ppm, % Control (or Mortality) rating
How it was run: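 Cotton plants carrying 200–400 whitefly eggs sprayed to run-off on both leaf surfaces at 200 ppm (acetone/0.025% Tween 20), four plants per treatment. After 9 days at about 25 °C, live 3rd–4th instar nymphs counted; Abbott-corrected percent control versus solvent check.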

[3] = 200 ppm foliar spray on cabbage seedlings, graded after three days, Abbott corrected % control
[4] = 200 ppm foliar spray on cotton plants, graded after 9 days, Abbott corrected % control

Compound	mortality at 200 ppm [1, 3] [%]	mortality at 200 ppm [2, 4] [%]	mortality at 200 ppm ([1]; foliar) [%]	mortality at 200 ppm ([2]; foliar) [%]
CCN(C(=O)C1CCCN(C(C)=O)C1)c1cn(-c2cccnc2)nc1Cl (stereo not drawn) [FA45, 1-Acetyl-N-(3-chloro-1-(pyridin-3-yl)-1H-pyrazol-4-yl)-N-ethylpiperidine-3-carboxamide]	80 to 100	0 to 80		
CCN(C(=O)CNC(=O)/C=C/C(F)(F)F)c1cn(-c2cccnc2)nc1Cl [Compound F99, (E)-N-(2-((3-Chloro-1-(pyridin-3-yl)-1H-pyrazol-4-yl)(ethyl)amino)-2-oxoethyl)-4,4,4-trifluorobut-2-enamide]	0 to 80	80 to 100		
CN(C(=O)CN1CCCCCC1=O)c1cn(-c2cccnc2)nc1Cl [Compound F22, N-(3-Chloro-1-(pyridin-3-yl)-1H-pyrazol-4-yl)-N-methyl-2-(2-oxoazepan-1-yl)acetamide]	0 to 80	80 to 100		
CC(=O)N1CCC(C(=O)N(C)c2cn(-c3cccnc3)nc2Cl)CC1 [Compound F29, 1-Acetyl-N-(3-chloro-1-(pyridin-3-yl)-1H-pyrazol-4-yl)-N-methylpiperidine-4-carboxamide]	80 to 100	80 to 100		
CCN(C(=O)COC(C)=O)c1cn(-c2cccnc2)nc1Cl [FA72, 2-((3-Chloro-1-(pyridin-3-yl)-1H-pyrazol-4-yl)(ethyl)amino)-2-oxoethyl acetate]	0 to 80	80 to 100		
CCN(C(=O)CCNC(=O)C1(C)CC1(F)F)c1cn(-c2cccnc2)nc1Cl (stereo not drawn) [Compound F113, N-(3-((3-chloro-1-(pyridin-3-yl)-1H-pyrazol-4-yl)(ethyl)amino)-3-oxopropyl)-2,2-difluoro-1-methylcyclopropanecarboxamide]	80 to 100	80 to 100		
CCN(C(=O)CCn1ccc(/C(C)=N/OC)n1)c1cn(-c2cccnc2)nc1Cl [FA1, (E/Z)-N-(3-Chloro-1-(pyridin-3-yl)-1H-pyrazol-4-yl)-N-ethyl-3-(3-(1-(methoxyimino)ethyl)-1H-pyrazol-1-yl)propanamide]	0 to 80	80 to 100		
CCN(C(=O)C1CCN(C(=O)OC(C)(C)C)CC1)c1cn(-c2cccnc2)nc1Cl [Compound F110, tert-Butyl 44-(3-chloro-1-(pyridin-3-yl)-1H-pyrazol-4-yl)(ethylcarbamoyl) piperidine-1-carboxylate]	80 to 100	80 to 100		
CCN(C(=O)C(C)OC(=O)N(C)C)c1cn(-c2cccnc2)nc1Cl (stereo not drawn) [Compound F93, 1-((3-chloro-1-(pyridin-3-yl)-1H-pyrazol-4-yl)(ethyl)amino)-1-oxopropan-2-yl dimethylcarbamate]			80 to 100	80 to 100
CCN(C(=O)CCNC(=O)CC(C)C(F)(F)F)c1cn(-c2cccnc2)nc1Cl (stereo not drawn) [Compound F28, N-(3-((3-Chloro-1-(pyridin-3-yl)-1H-pyrazol-4-yl)(ethyl)amino)-3-oxopropyl)-4,4,4-trifluoro-3-methylbutanamide]	80 to 100	80 to 100		
O=C(CCC(=O)N(CC1CC1)c1cn(-c2cccnc2)nc1Cl)N1CCCCC1 [Compound F82, N-(3-Chloro-1-(pyridin-3-yl)-1H-pyrazol-4-yl)-N-(cyclopropylmethyl)-4-oxo-4-(piperidin-1-yl)butanamide]	0 to 80	80 to 100		
CCN(C(=O)CC/C(=N/OCC1CC(F)(F)C1)c1cccs1)c1cn(-c2cccnc2)nc1Cl [FA31, (Z)-N-(3-Chloro-1-(pyridin-3-yl)-1H-pyrazol-4-yl)-4-(((3,3-difluorocyclobutyl)methoxy)imino)-N-ethyl-4-(thiophen-2-yl)butanamide]	< 0	0 to 80		
CCN(C(=O)CCCC1CN(CC2CC2(F)F)C1=O)c1cn(-c2cccnc2)nc1Cl (stereo not drawn) [Compound F104, N-(3-Chloro-1-(pyridin-3-yl)-1H-pyrazol-4-yl)-4-(1-((2,2-difluorocyclopropyl)methyl)-2-oxoazetidin-3-yl)-N-ethylbutanamide]	80 to 100	80 to 100		
CCN(C(=O)CCC(=O)N(C)CCC(F)(F)F)c1cn(-c2cccnc2)nc1Cl [Compound F108, N1-(3-chloro-1-(pyridin-3-yl)-1H-pyrazol-4-yl)-N1-ethyl-N4-methyl-N4-(3,3,3-trifluoropropyl)succinamide]	80 to 100	80 to 100		
CCN(C(=O)CCCN1CCOC1=O)c1cn(-c2cccnc2)nc1Cl [FA34, N-(3-Chloro-1-(pyridin-3-yl)-1H-pyrazol-4-yl)-N-ethyl-4-(2-oxooxazolidin-3-yl)butanamide]	80 to 100	80 to 100		
CCN(C(=O)C1CCCN(C(=O)CCC#N)C1)c1cn(-c2cccnc2)nc1Cl (stereo not drawn) [FA44, N-(3-chloro-1-(pyridin-3-yl)-1H-pyrazol-4-yl)-1-(3-cyanopropanoyl)-N-ethylpiperidine-3-carboxamide]	80 to 100	80 to 100		
CN(C(=O)[C@@H]1C=C[C@H](NC(=O)OC(C)(C)C)C1)c1cn(-c2cccnc2)nc1Cl [Compound F109, tert-butyl ((1R,4S)-4-((3-chloro-1-(pyridin-3-yl)-1H-pyrazol-4-yl)(methyl)carbamoyl)cyclopent-2-en-1-yl)carbamate]	0 to 80	80 to 100		
CCN(C(=O)C(C)Cl)c1cn(-c2cccnc2)nc1Cl (stereo not drawn) [Compound C10, 2-Chloro-N-(3-chloro-1-(pyridin-3-yl)-1H-pyrazol-4-yl)-N-ethylpropanamide]	80 to 100	80 to 100		
